Legend:
LSR receptors = assay type: cell-based, rat; details: after leptin; 5 μM cycloheximide or 2.5 μM cytochalasin B, 30 min 37° C.
Protocol: Primary cultures of rat hepatocytes are incubated for 30 min at 37° C. in the presence or in the absence of 20 ng/ml of leptin, for 10 min at 37° C. in the presence of 0.8 mM oleate. The cells are washed with PBS buffer precooled to 4° C., and then incubated for 2 hours at 4° C. in the presence of increasing concentrations of ^125I-LDL. The cells are then washed, lysed and the quantity of bound ^125I-LDL is measured.
The initial conditions are identical to those described above; after incubation with leptin, the cells are incubated for 30 min at 37° C. with 5 μM cycloheximide, 5 μM colchicine or 2.5 μM cytochalasin B. The cells are then incubated for 10 min at 37° C. in the presence of 0.8 mM oleate. The cells are then washed with PBS buffer precooled to 4° C., and then incubated for 2 hours at 4° C. in the presence of 50 μg/ml of ^125I-LDL. 2 measurements are carried out, and the mean results are presented.

LSR = target: T1, LSR (Rattus norvegicus, UniProt Q9WU74); assay: Effect of C1q on binding, internalization and degradation of LDLs by hepatocytes in primary culture; assay type: cell-based
T1 sequence (Q9WU74 36-593): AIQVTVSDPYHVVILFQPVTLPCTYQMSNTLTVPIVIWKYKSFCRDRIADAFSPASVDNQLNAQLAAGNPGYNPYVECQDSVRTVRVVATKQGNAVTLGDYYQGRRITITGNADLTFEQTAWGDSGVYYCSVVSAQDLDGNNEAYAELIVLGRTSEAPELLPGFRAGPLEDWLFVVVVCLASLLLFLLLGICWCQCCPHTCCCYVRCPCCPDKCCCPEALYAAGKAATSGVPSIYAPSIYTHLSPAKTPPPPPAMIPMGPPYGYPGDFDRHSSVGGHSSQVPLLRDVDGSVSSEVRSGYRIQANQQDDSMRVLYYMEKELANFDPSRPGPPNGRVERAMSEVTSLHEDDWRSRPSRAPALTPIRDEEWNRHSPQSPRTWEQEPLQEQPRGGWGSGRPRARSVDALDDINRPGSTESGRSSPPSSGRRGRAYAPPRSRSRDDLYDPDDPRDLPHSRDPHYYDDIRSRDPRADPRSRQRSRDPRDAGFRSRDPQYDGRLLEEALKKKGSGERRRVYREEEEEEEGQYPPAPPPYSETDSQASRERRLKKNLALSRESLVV
T1 sequence (Q9WU74 36-525 isoform Q9WU74-3 limits assumed): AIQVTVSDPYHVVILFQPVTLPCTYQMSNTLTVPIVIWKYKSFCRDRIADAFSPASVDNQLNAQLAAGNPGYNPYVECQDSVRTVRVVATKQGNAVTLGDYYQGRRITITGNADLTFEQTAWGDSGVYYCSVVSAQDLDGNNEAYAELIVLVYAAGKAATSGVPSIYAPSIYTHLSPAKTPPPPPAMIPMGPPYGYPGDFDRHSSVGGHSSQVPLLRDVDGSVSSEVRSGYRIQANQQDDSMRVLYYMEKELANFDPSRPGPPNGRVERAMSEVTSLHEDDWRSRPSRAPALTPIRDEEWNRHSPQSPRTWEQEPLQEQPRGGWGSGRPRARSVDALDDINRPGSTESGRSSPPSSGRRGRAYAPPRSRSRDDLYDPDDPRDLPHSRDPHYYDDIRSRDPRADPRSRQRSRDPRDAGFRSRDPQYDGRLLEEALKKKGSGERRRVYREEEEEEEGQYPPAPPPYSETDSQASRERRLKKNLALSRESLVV
Protocol: The LSR activity in the primary cultures of rat hepatocytes is measured by the binding, internalization and degradation of ^125I-LDL and ^125I-VLDL (LDL: low-density lipoprotein; VLDL: very low-density lipoprotein), as described in Bihain and Yen, 1992 and Mann et al., 1995.
It has been shown that gC1q-R could bind the globular head of […]. We sought to use this property of C1q to displace gC1q-R combined with LSR, and we measured the effect of increasing doses of C1q on the binding, internalization and degradation of the LDLs by hepatocytes in primary culture.

Row | Compound | induction by leptin of the LSR activity (increase in apparent number of receptors) (LSR receptors) | capture and degradation of LDLs (LSR; C1q, in the presence of oleate) | capture and degradation of LDLs (LSR; human C1q, in the absence of oleate)
1 | C[C@@H]1C[C@@H]([C@H](O)CC2CC(=O)NC(=O)C2)C(=O)[C@@H](C)C1 [cycloheximide] | partially inhibited |  | 
2 | C=C1[C@@H](C)[C@H]2[C@H](Cc3ccccc3)NC(=O)[C@]23OC(=O)/C=C/[C@H](O)CCC[C@@H](C)C/C=C/[C@H]3[C@@H]1O [cytochalasin B] | inhibited |  | 
3 | C1q: human complement factor C1q, binds gC1q-R |  | less substantial, but nevertheless significant, increase | increase
